Laboratory results published in PubChem BioAssay (NCI).
Where “and” joins values, the source holds several entries; their conditions need not be identical. Identical values can stand only once.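 48-hour exposure; five concentrations; linearly interpolated endpoints. GI50 = concentration required for 50% inhibition of growth. TGI: total growth inhibition.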

Experiments:
Assay in all cases: growth of human tumour cells (NCI), 48 h
T-47D breast = system: T-47D breast
MDA-MB-231 breast = system: MDA-MB-231 breast
NCI-H460 lung = system: NCI-H460 lung
MCF7 breast = system: MCF7 breast
M14 melanoma = system: M14 melanoma
DU-145 prostate = system: DU-145 prostate
NCI/ADR-RES ovarian = system: NCI/ADR-RES ovarian
OVCAR-4 ovarian = system: OVCAR-4 ovarian
RXF 393 renal = system: RXF 393 renal
MDA-MB-435 = system: MDA-MB-435

| Compound | TGI (T-47D breast) | GI50 (MDA-MB-231 breast) | TGI (MDA-MB-231 breast) | TGI (NCI-H460 lung) | TGI (MCF7 breast) | TGI (M14 melanoma) | TGI (DU-145 prostate) | GI50 (NCI/ADR-RES ovarian) | TGI (NCI/ADR-RES ovarian) | GI50 (OVCAR-4 ovarian) | GI50 (RXF 393 renal) | TGI (RXF 393 renal) | TGI (MDA-MB-435) | GI50 (T-47D breast) | GI50 (NCI-H460 lung) | GI50 (MCF7 breast) | GI50 (M14 melanoma) | GI50 (DU-145 prostate) | TGI (OVCAR-4 ovarian) | GI50 (MDA-MB-435) |
| --- | --- | --- | --- | --- | --- | --- | --- | --- | --- | --- | --- | --- | --- | --- | --- | --- | --- | --- | --- | --- |
| COc1ccc([C@@]23Oc4cc(OC)cc(OC)c4[C@]2(O)[C@H](O)[C@H](C(N)=O)[C@H]3c2ccccc2)cc1 | 0.21 µM and 0.0483 µM | 0.0175 µM | 0.126 µM and 0.0685 µM | 0.19 µM | 0.112 µM | 0.0233 µM and < 0.01 µM | 0.105 µM and < 0.0219 µM | 0.0504 µM | 0.687 µM and 0.867 µM | 0.0142 µM | < 0.0115 µM | 0.0472 µM and 0.0136 µM | 0.0793 µM and 0.631 µM | – | – | – | – | – | – | – |
| COc1cccc(Nc2nc3ccccc3c3occc23)c1 | 22.8 µM | 8.53 µM | 31.6 µM | > 100 µM | > 100 µM | 28.6 µM | 22.9 µM | 17.9 µM | 32.1 µM | 11.2 µM | 4.46 µM | 19.8 µM | 22.6 µM | 4.1 µM | 25.2 µM | 43.7 µM | 13.9 µM | 10.9 µM | 29.8 µM | 10.7 µM |
| O=C1c2ccccc2-c2c1c1ccccc1c(=O)n2CCCNCCn1c2c(c3ccccc3c1=O)C(=O)c1ccccc1-2 | 34.6 µM | 2 µM | 9.25 µM | 17.6 µM | 13.8 µM | 10.9 µM | 12 µM | 11.3 µM | 25.9 µM | 11.5 µM | 2.29 µM | 13.9 µM | 6.11 µM | 17.8 µM | 3.02 µM | 3.47 µM | 2.8 µM | 1.89 µM | 24.9 µM | 2.24 µM |
| CCN(Cc1cccc(Cl)c1)c1ccc(CO)c(Cl)c1 | 1.14 µM | 12.9 µM | 30.2 µM | 12.3 µM | 11.4 µM | 28.6 µM | 24.8 µM | 10.8 µM | 23.8 µM | 0.505 µM | 4.67 µM | 19.8 µM | 27.5 µM | 0.205 µM | 0.35 µM | 0.329 µM | 12.6 µM | 11.6 µM | 9.87 µM | 13.5 µM |
| Cc1cn(Cc2ccc(C34CC5CC(CC(C5)C3)C4)c(O)c2)c(=O)[nH]c1=O | 51.8 µM | 15.5 µM | 31 µM | 42.3 µM | 72.9 µM | 26.9 µM | 26.6 µM | 11.3 µM | 27.2 µM | 12.9 µM | 1.82 µM | 7.2 µM | 9.02 µM | 6.45 µM | 12.6 µM | 7.96 µM | 11.5 µM | 13.7 µM | 32.1 µM | 2.62 µM |
| O=C(NCC1CCCO1)c1ccc(NC2=C(Cl)C(=O)N(Cc3ccccc3)C2=O)cc1 (configuration not stated) | > 100 µM | 16.8 µM | 46.6 µM | 46.5 µM | 26.6 µM | 23.4 µM | 30 µM | 23.9 µM | 51.4 µM | 19.2 µM | 20.6 µM | 50.8 µM | 21.7 µM | 30.5 µM | 15.5 µM | 4.39 µM | 11.2 µM | 12.3 µM | 44.6 µM | 9.33 µM |
| N#Cc1cnc(Nc2cc(NC[C@H]3CNCCO3)c(C(F)(F)F)cn2)cn1 | 51.5 µM | 13.1 µM | 47 µM | 38.3 µM | 23 µM | 16.7 µM | 40.2 µM | 1.73 µM | 84.5 µM | 10.5 µM | 0.858 µM | 18.2 µM | 27.2 µM | 16.6 µM | 13.4 µM | 0.639 µM | 0.388 µM | 8.07 µM | 82.7 µM | 3.56 µM |
| c1ccc(CNCCN(CCNCc2ccccn2)Cc2ccc3ccccc3c2)nc1 | 9.06 µM | 1.68 µM | 3.81 µM | 5 µM | 10.5 µM | 3.39 µM | 10.3 µM | 2.4 µM | 6.96 µM | 1.88 µM | 2.03 µM | 5.17 µM | 4.08 µM | 2.59 µM | 2.14 µM | 2.86 µM | 1.64 µM | 2.79 µM | 5.3 µM | 1.99 µM |
| CC[C@@H](C)/C=C(C)/C=C/C(=O)c1c(O)c(-c2ccc(O)cc2)cn(O)c1=O | 28.5 µM | 0.733 µM | 23 µM | 1.11 µM | 16.5 µM | 13.2 µM | 13.8 µM | 0.327 µM | 10.7 µM | 0.261 µM | 0.22 µM | 2.25 µM | 17.5 µM | 0.609 µM | 0.292 µM | 0.365 µM | 0.284 µM | 0.496 µM | 12.5 µM | 0.468 µM |
| Nc1nc(/C=C\c2ccccc2)nc(N2CCN(c3ccccc3)CC2)n1 | 41.9 µM | 19.2 µM | 53.4 µM | > 100 µM | 84.1 µM | > 100 µM | > 100 µM | 25.5 µM | 93.3 µM | 37.2 µM | 21.6 µM | 49.2 µM | 70.2 µM | 11.6 µM | 24.5 µM | 26.5 µM | 30.2 µM | 39.5 µM | > 100 µM | 28.4 µM |
| O=C(CCN1CCCCC1)N1CCc2c([nH]c3ccccc23)C1c1cccnc1 (configuration not stated) | > 100 µM | – | > 74.2 µM | > 100 µM | > 100 µM | 42.2 µM | > 100 µM | – | > 100 µM | – | – | 81.5 µM | 75.1 µM | – | – | – | – | – | > 100 µM | – |
| CCNC(=O)Oc1ccc(/C(=C(/C)Cc2ccc(OC)cc2)c2ccc(OCCN(CC)CC)cc2)cc1 | 4.23 µM | 1.78 µM | 3.38 µM | 3.5 µM | 2.41 µM | 3.62 µM | 5.83 µM | 2.99 µM | 11.5 µM | 2.31 µM | 1.9 µM | 3.62 µM | 3.18 µM | 1.3 µM | 1.85 µM | 0.621 µM | 1.72 µM | 2.36 µM | 7.84 µM | 1.67 µM |
| Cc1cc(C)c(-c2c(N)cc(Br)cc2Br)c(N)c1 | 19.3 µM | 4.85 µM | 19 µM | 16.7 µM | 13.8 µM | 15.7 µM | 16.4 µM | 2.98 µM | 9.11 µM | 8.43 µM | 3.16 µM | 8.78 µM | 7.37 µM | 5.71 µM | 4.5 µM | 4.03 µM | 4.4 µM | 4.33 µM | 22.3 µM | 2.29 µM |
| CN1CCN(Cc2ccc(NC(=O)c3cncc(C#Cc4cnc(N)c5cccnc45)c3)cc2C(F)(F)F)CC1 | > 50 µM | 0.137 µM | 0.975 µM | > 50 µM | > 50 µM | 0.604 µM | > 50 µM | > 50 µM | > 50 µM | 0.149 µM | 0.255 µM | 2.51 µM | – | 0.36 µM | 0.272 µM | 0.69 µM | 0.143 µM | 0.309 µM | > 50 µM | 0.15 µM |
| NS(=O)(=O)c1cc(C(=O)O)c(O)c2ccccc12 | > 100 µM | – | > 100 µM | > 100 µM | > 100 µM | > 100 µM | > 100 µM | – | > 100 µM | – | – | > 100 µM | > 100 µM | – | – | – | – | – | > 100 µM | – |
| CSc1nc2c(c(=O)n1C)CN(C1CCCCC1)C(=O)C(c1ccccc1)N2 (configuration not stated) | > 100 µM | 27.4 µM | > 100 µM | > 100 µM | 66 µM | > 100 µM | > 100 µM | 38.9 µM | > 100 µM | 35.2 µM | 49.5 µM | > 100 µM | > 100 µM | 29.3 µM | 37.2 µM | 19.3 µM | 43.5 µM | 64.4 µM | > 100 µM | 19.1 µM |
| CC(=O)N1N=C(c2ccc(Nc3nc(Nc4ccc(F)cc4)nc(Nc4ccc(F)cc4)n3)cc2)CC1c1ccc(N(C)C)cc1 (configuration not stated) | 37.4 µM | 6.54 µM | 29.7 µM | 17 µM | 13.7 µM | 9.79 µM | 32 µM | 4.72 µM | 33.3 µM | 3.77 µM | 1.56 µM | 5.6 µM | 11.1 µM | 4.5 µM | 4.9 µM | 3.23 µM | 2.79 µM | 11.9 µM | > 100 µM | 3 µM |
| COC(=O)c1oc2c(C(=O)/C=C/c3ccc(OC)cc3)c(OCCN(C)C)ccc2c1C | 16.8 µM | 8.33 µM | 22.9 µM | 17.5 µM | 9.89 µM | 25.5 µM | 10.7 µM | 10.3 µM | 28 µM | 5.06 µM | 3.91 µM | 14.6 µM | 16.3 µM | 3.1 µM | 4.56 µM | 2.98 µM | 10.6 µM | 2.82 µM | 16.8 µM | 4.57 µM |
| CO[C@H]1CC(O[C@@H]2/C(C)=C/C[C@@H]3C[C@@H](C[C@]4(CC[C@H](C)[C@@H](C5CCCCC5)O4)O3)OC(=O)[C@@H]3C=C(C)/C(=N/O)[C@H]4OC/C(=C\C=C\[C@@H]2C)[C@]43O)O[C@@H](C)C1O (some centres not stated) | 3.09 µM | 0.768 µM | 1.59 µM | 1.51 µM | 2.46 µM | 4.62 µM | 1.62 µM | 1.07 µM | 2.9 µM | 1.02 µM | 0.728 µM | 1.4 µM | 2.41 µM | 1.1 µM | 0.793 µM | 0.972 µM | 1.5 µM | 0.833 µM | 2.65 µM | 1.05 µM |
| CCN(CC)CCCC(C)N/C(=C1\C(=O)NC(=O)\C1=C(/NC(C)CCCN(CC)CC)c1cccc(OC)c1)c1cccc(OC)c1 (configuration not stated) | 3.7 µM | 0.574 µM | 1.47 µM | 2.05 µM | 3.56 µM | 1.75 µM | 4.5 µM | 1.36 µM | 5.04 µM | 0.742 µM | 0.72 µM | 1.58 µM | 1.52 µM | 1.3 µM | 0.58 µM | 1.03 µM | 0.932 µM | 1.02 µM | 2.2 µM | 0.803 µM |
| COC(=O)c1cc2c3ccccc3n3c2c(n1)-c1[nH]c2ccccc2c(=O)c1C3 | > 100 µM | 33.7 µM | > 100 µM | > 100 µM | > 100 µM | > 100 µM | > 100 µM | > 100 µM | > 100 µM | > 100 µM | 16.3 µM | 66.9 µM | > 100 µM | 58.4 µM | > 100 µM | 15.6 µM | > 100 µM | > 100 µM | > 100 µM | > 100 µM |
